Laboratory results: ChEMBL document CHEMBL1201862, “PubChem BioAssay data set” (2004)
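Five concentrations, 48 hours, 96-well plates. GI50 = concentration required for 50% inhibition of growth.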 Active and inactive are the calls of the source. Cut-off read from the data, not from the text of the source: active = GI50 up to about 1.1 µM and inactive = higher.

Key:
Assay in all cases: NCI tumour cell line growth inhibition, 48 h
K562 = test system: K562
HT-29 = test system: HT-29
Malme-3M = test system: Malme-3M
NCI-H522 = test system: NCI-H522
SF-268 = test system: SF-268
UACC-257 = test system: UACC-257
UACC-62 = test system: UACC-62
Hs-578T = test system: Hs-578T
ACHN = test system: ACHN
MCF7 = test system: MCF7
A498 = test system: A498
OVCAR-5 = test system: OVCAR-5
DU-145 = test system: DU-145
RPMI-8226 = test system: RPMI-8226
PC-3 = test system: PC-3
HCT-15 = test system: HCT-15
LOX IMVI = test system: LOX IMVI
OVCAR-8 = test system: OVCAR-8
MDA-MB-231 = test system: MDA-MB-231
SNB-75 = test system: SNB-75

For `CN(C)CCNC(=O)Cn1cnc2cccc([N+](=O)[O-])c2c1=O`, the GI50 (K562) was > 100 µM (inactive), the GI50 (HT-29) was > 100 µM (inactive) and the GI50 (Malme-3M) was > 100 µM (inactive). For the same compound, the GI50 (NCI-H522) was > 100 µM (inactive), the GI50 (SF-268) was > 100 µM (inactive) and the GI50 (UACC-257) was > 100 µM (inactive). For the same compound, the GI50 (UACC-62) was > 100 µM (inactive), the GI50 (Hs-578T) was > 100 µM (inactive) and the GI50 (ACHN) was > 100 µM (inactive). For the same compound, the GI50 (MCF7) was > 100 µM (inactive), the GI50 (A498) was > 100 µM (inactive) and the GI50 (OVCAR-5) was > 100 µM (inactive). The GI50 (DU-145) was > 100 µM (inactive), the GI50 (RPMI-8226) was > 100 µM (inactive) and the GI50 (PC-3) was > 100 µM (inactive). For the same compound, the GI50 (HCT-15) was greater than 100 µM and the GI50 (LOX IMVI) was > 100 µM (inactive).

In the case of `Cc1ccc(S(=O)(=O)N2CCN(S(=O)(=O)c3ccc(C)cc3)Cc3ccccc3C2)cc1`, the GI50 (K562) is reported as > 100 µM (inactive), the GI50 (HT-29) is reported as > 100 µM (inactive) and the GI50 (Malme-3M) is reported as > 100 µM (inactive). For the same compound, the GI50 (NCI-H522) was 21.6 µM (inactive), the GI50 (SF-268) was 81.1 µM (inactive) and the GI50 (UACC-257) was 49.8 µM (inactive). For the same compound, the GI50 (UACC-62) was 10.1 µM (inactive), the GI50 (Hs-578T) was 24.5 µM (inactive) and the GI50 (OVCAR-8) was 82.6 µM (inactive). For the same compound, the GI50 (ACHN) was 36.9 µM (inactive), the GI50 (MCF7) was 50.5 µM (inactive) and the GI50 (OVCAR-5) was > 10 µM (inactive). For the same compound, the GI50 (DU-145) was > 100 µM (inactive), the GI50 (RPMI-8226) was > 100 µM (inactive) and the GI50 (HCT-15) was greater than 100 µM. The GI50 (LOX IMVI) was > 100 µM (inactive) and the GI50 (MDA-MB-231) was > 100 µM (inactive).

For `CC1=CC(=O)c2ccc3c4ccccc4n(C)c3c2C1=O`, the GI50 (K562) was 16.1 µM (inactive), the GI50 (HT-29) was > 31.6 µM (inactive) and the GI50 (Malme-3M) was 6.67 µM (inactive). For the same compound, the GI50 (NCI-H522) was 28.4 µM (inactive), the GI50 (SF-268) was > 70 µM (inactive) and the GI50 (UACC-257) was 46.3 µM (inactive). The GI50 (Hs-578T) was 62.8 µM (inactive), the GI50 (OVCAR-8) was 58.9 µM (inactive) and the GI50 (ACHN) was 55.6 µM (inactive). For the same compound, the GI50 (SNB-75) was 54.1 µM (inactive), the GI50 (MCF7) was 12 µM (inactive) and the GI50 (A498) was 83.6 µM (inactive). The GI50 (OVCAR-5) was > 100 µM (inactive), the GI50 (DU-145) was 63.2 µM (inactive) and the GI50 (RPMI-8226) was > 41.2 µM (inactive). The GI50 (HCT-15) was 25.5 µM and the GI50 (MDA-MB-231) was 70.6 µM (inactive).

With `CCC/C(Cl)=N\OC(=O)Nc1ccc(F)c([N+](=O)[O-])c1` the GI50 (K562) was 5.32 µM (inactive), the GI50 (HT-29) was 20.1 µM (inactive) and the GI50 (Malme-3M) was 10.9 µM (inactive). The GI50 (NCI-H522) was 1.79 µM (inactive), the GI50 (SF-268) was 14.2 µM (inactive) and the GI50 (UACC-257) was 17.3 µM (inactive). The GI50 (UACC-62) was 18.7 µM (inactive), the GI50 (OVCAR-8) was 17.5 µM (inactive) and the GI50 (ACHN) was 4.97 µM (inactive). The GI50 (SNB-75) was 17.6 µM (inactive), the GI50 (MCF7) was 25.5 µM (inactive) and the GI50 (A498) was 21.5 µM (inactive). For the same compound, the GI50 (OVCAR-5) was 20.4 µM (inactive), the GI50 (DU-145) was 14.7 µM (inactive) and the GI50 (RPMI-8226) was 9.51 µM (inactive). For the same compound, the GI50 (PC-3) was 15.2 µM (inactive), the GI50 (HCT-15) was 16.9 µM and the GI50 (LOX IMVI) was 21.9 µM (inactive). The GI50 (MDA-MB-231) was 20.3 µM (inactive).

In the case of `O=C(NNC(=S)Nc1ccccc1)c1csc(NC(=S)NC2CCCCC2)n1`, the GI50 (K562) is reported as > 10 µM (inactive), the GI50 (HT-29) is reported as 15.6 µM (inactive) and the GI50 (Malme-3M) is reported as > 100 µM (inactive). The GI50 (NCI-H522) was 79.3 µM (inactive), the GI50 (SF-268) was 99.3 µM (inactive) and the GI50 (UACC-257) was 29 µM (inactive). For the same compound, the GI50 (UACC-62) was 38.9 µM (inactive), the GI50 (OVCAR-8) was 56.5 µM (inactive) and the GI50 (ACHN) was > 100 µM (inactive). For the same compound, the GI50 (SNB-75) was 47.1 µM (inactive), the GI50 (MCF7) was 64.9 µM (inactive) and the GI50 (A498) was > 100 µM (inactive). For the same compound, the GI50 (OVCAR-5) was > 100 µM (inactive), the GI50 (DU-145) was > 100 µM (inactive) and the GI50 (RPMI-8226) was 28.8 µM (inactive). For the same compound, the GI50 (PC-3) was 62.4 µM (inactive), the GI50 (HCT-15) was 33.3 µM and the GI50 (LOX IMVI) was 26.6 µM (inactive). For the same compound, the GI50 (MDA-MB-231) was 46.3 µM (inactive).

In the case of `O=C(O)C(CCc1ccccc1)N1C(=O)c2ccccc2C1=O` (stereo not given), the GI50 (K562) is reported as > 100 µM (inactive), the GI50 (HT-29) is reported as > 100 µM (inactive) and the GI50 (UACC-257) is reported as > 100 µM (inactive). The GI50 (UACC-62) was > 100 µM (inactive), the GI50 (OVCAR-8) was > 100 µM (inactive) and the GI50 (ACHN) was > 100 µM (inactive). The GI50 (SNB-75) was > 100 µM (inactive), the GI50 (MCF7) was > 100 µM (inactive) and the GI50 (A498) was > 100 µM (inactive). The GI50 (OVCAR-5) was > 100 µM (inactive), the GI50 (DU-145) was > 100 µM (inactive) and the GI50 (RPMI-8226) was > 100 µM (inactive). For the same compound, the GI50 (PC-3) was > 100 µM (inactive), the GI50 (HCT-15) was greater than 100 µM and the GI50 (LOX IMVI) was > 100 µM (inactive). For the same compound, the GI50 (MDA-MB-231) was > 100 µM (inactive).
